Assays:
Experiment in all cases: relative viability (nuclei count vs DMSO), 5 days (fraction); higher = more cells survive
[1] = test system: LK-2
Procedure, shortened: (§1)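 Lung cancer cell lines in 1536-well plates got either a single drug or a fixed anchor-drug dose together with five library-drug doses (not always all listed) in √10 steps, by pin tool, on the day after seeding. Nuclei were counted after 5 days, and relative viability is the treated-to-vehicle ratio of nuclei counts. Values are medians of duplicate plates.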

[2] = test system: NCI-H2009
Procedure, shortened: as §1

[3] = test system: LC-2-ad
Procedure, shortened: as §1

[4] = test system: EMC-BAC-2
Procedure, shortened: as §1

[5] = test system: NCI-H2347
Procedure, shortened: as §1

[6] = test system: SW 1573
Procedure, shortened: as §1

[7] = test system: NCI-H838
Procedure, shortened: as §1

[8] = test system: HCC-366
Procedure, shortened: as §1

[9] = test system: PC-14
Procedure, shortened: as §1

[10] = test system: NCI-H2085
Procedure, shortened: as §1

[11] = test system: NCI-H1734
Procedure, shortened: as §1

[12] = test system: HOP-62
Procedure, shortened: as §1

[13] = test system: NCI-H1993
Procedure, shortened: as §1

[14] = test system: NCI-H2405
Procedure, shortened: as §1

[15] = test system: RERF-LC-KJ
Procedure, shortened: as §1

[16] = test system: CAL-12T
Procedure, shortened: as §1

[17] = test system: NCI-H2228
Procedure, shortened: as §1

[18] = test system: ChaGo-K-1
Procedure, shortened: as §1

[19] = test system: NCI-H3122
Procedure, shortened: as §1

[20] = test system: SK-MES-1
Procedure, shortened: as §1

[21] = test system: NCI-H1355
Procedure, shortened: as §1

[22] = test system: HCC-78
Procedure, shortened: as §1

O=C(O)CCCCC(CCSCc1ccccc1)SCc1ccccc1 (stereo not given) [CPI-613] + CC(=O)c1c(C)c2cnc(Nc3ccc(N4CCNCC4)cn3)nc2n(C2CCCC2)c1=O [Palbociclib] (partner 0.5 µM)
relative viability ([1]; first compound 5 µM): 0.766 | relative viability ([1]; first compound 15.81 µM): 0.684 | relative viability ([1]; first compound 50 µM): 0.726 | relative viability ([1]; first compound 158.11 µM): 0.532 | relative viability ([1]; first compound 500 µM): 0.547 | relative viability ([2]; first compound 5 µM): 0.229 | relative viability ([2]; first compound 15.81 µM): 0.207 | relative viability ([2]; first compound 50 µM): 0.221 | relative viability ([2]; first compound 158.11 µM): 0.0593 | relative viability ([2]; first compound 500 µM): 0.0128 | relative viability ([3]; first compound 5 µM): 0.446 | relative viability ([3]; first compound 15.81 µM): 0.472 | relative viability ([3]; first compound 50 µM): 0.489 | relative viability ([3]; first compound 158.11 µM): 0.24 | relative viability ([3]; first compound 500 µM): 0.168 | relative viability ([4]; first compound 5 µM): 0.524 | relative viability ([4]; first compound 15.81 µM): 0.506 | relative viability ([4]; first compound 50 µM): 0.514 | relative viability ([4]; first compound 158.11 µM): 0.267 | relative viability ([4]; first compound 500 µM): 0.265 | relative viability ([5]; first compound 5 µM): 0.434 | relative viability ([5]; first compound 15.81 µM): 0.379 | relative viability ([5]; first compound 50 µM): 0.404 | relative viability ([5]; first compound 158.11 µM): 0.392 | relative viability ([5]; first compound 500 µM): 0.22 | relative viability ([6]; first compound 5 µM): 0.336 | relative viability ([6]; first compound 15.81 µM): 0.579 | relative viability ([6]; first compound 50 µM): 0.384 | relative viability ([6]; first compound 158.11 µM): 0.0841 | relative viability ([6]; first compound 500 µM): 0.056 | relative viability ([7]; first compound 5 µM): 0.21 | relative viability ([7]; first compound 15.81 µM): 0.189 | relative viability ([7]; first compound 50 µM): 0.216 | relative viability ([7]; first compound 158.11 µM): 0.139 | relative viability ([7]; first compound 500 µM): 0.0859 | relative viability ([8]; first compound 5 µM): 0.354 | relative viability ([8]; first compound 15.81 µM): 0.322 | relative viability ([8]; first compound 50 µM): 0.336 | relative viability ([8]; first compound 158.11 µM): 0.0258 | relative viability ([8]; first compound 500 µM): 0.006 | relative viability ([9]; first compound 5 µM): 0.534 | relative viability ([9]; first compound 15.81 µM): 0.54 | relative viability ([9]; first compound 50 µM): 0.49 | relative viability ([9]; first compound 158.11 µM): 0.0565 | relative viability ([9]; first compound 500 µM): 0.0114 | relative viability ([10]; first compound 5 µM): 0.447 | relative viability ([10]; first compound 15.81 µM): 0.47 | relative viability ([10]; first compound 50 µM): 0.456 | relative viability ([10]; first compound 158.11 µM): 0.391 | relative viability ([10]; first compound 500 µM): 0.191 | relative viability ([11]; first compound 5 µM): 0.314 | relative viability ([11]; first compound 15.81 µM): 0.274 | relative viability ([11]; first compound 50 µM): 0.335 | relative viability ([11]; first compound 158.11 µM): 0.199 | relative viability ([11]; first compound 500 µM): 0.144 | relative viability ([12]; first compound 5 µM): 0.437 | relative viability ([12]; first compound 15.81 µM): 0.45 | relative viability ([12]; first compound 50 µM): 0.427 | relative viability ([12]; first compound 158.11 µM): 0.186 | relative viability ([12]; first compound 500 µM): 0.126 | relative viability ([13]; first compound 5 µM): 0.611 | relative viability ([13]; first compound 15.81 µM): 0.581 | relative viability ([13]; first compound 50 µM): 0.715 | relative viability ([13]; first compound 158.11 µM): 0.468 | relative viability ([13]; first compound 500 µM): 0.38 | relative viability ([14]; first compound 5 µM): 0.558 | relative viability ([14]; first compound 15.81 µM): 0.499 | relative viability ([14]; first compound 50 µM): 0.453 | relative viability ([14]; first compound 158.11 µM): 0.167 | relative viability ([14]; first compound 500 µM): 0.316 | relative viability ([15]; first compound 5 µM): 1.07 | relative viability ([15]; first compound 15.81 µM): 0.952 | relative viability ([15]; first compound 50 µM): 1.09 | relative viability ([15]; first compound 158.11 µM): 0.615 | relative viability ([15]; first compound 500 µM): 0.571 | relative viability ([16]; first compound 5 µM): 0.321 | relative viability ([16]; first compound 15.81 µM): 0.283 | relative viability ([16]; first compound 50 µM): 0.461 | relative viability ([16]; first compound 158.11 µM): 0.0907 | relative viability ([16]; first compound 500 µM): 0.0203 | relative viability ([17]; first compound 5 µM): 0.693 | relative viability ([17]; first compound 15.81 µM): 0.622 | relative viability ([17]; first compound 50 µM): 0.679 | relative viability ([17]; first compound 158.11 µM): 0.45 | relative viability ([17]; first compound 500 µM): 0.0679 | relative viability ([18]; first compound 5 µM): 0.868 | relative viability ([18]; first compound 15.81 µM): 0.902 | relative viability ([18]; first compound 50 µM): 0.842 | relative viability ([18]; first compound 158.11 µM): 0.339 | relative viability ([18]; first compound 500 µM): 0.419 | relative viability ([19]; first compound 5 µM): 0.178 | relative viability ([19]; first compound 15.81 µM): 0.198 | relative viability ([19]; first compound 50 µM): 0.175 | relative viability ([19]; first compound 158.11 µM): 0.155 | relative viability ([19]; first compound 500 µM): 0.145 | relative viability ([20]; first compound 5 µM): 0.305 | relative viability ([20]; first compound 15.81 µM): 0.279 | relative viability ([20]; first compound 50 µM): 0.277 | relative viability ([20]; first compound 158.11 µM): 0.14 | relative viability ([20]; first compound 500 µM): 0.145 | relative viability ([21]; first compound 5 µM): 0.429 | relative viability ([21]; first compound 15.81 µM): 0.408 | relative viability ([21]; first compound 50 µM): 0.424 | relative viability ([21]; first compound 158.11 µM): 0.407 | relative viability ([21]; first compound 500 µM): 0.105 | relative viability ([22]; first compound 5 µM): 0.462 | relative viability ([22]; first compound 15.81 µM): 0.527 | relative viability ([22]; first compound 50 µM): 0.473 | relative viability ([22]; first compound 158.11 µM): 0.447 | relative viability ([22]; first compound 500 µM): 0.427
